We go through 30 compounds from PMC8286840, “Identifying SARS-CoV-2 antiviral compounds by screening for small molecule inhibitors of Nsp3 papain-like protease” (Biochemical Journal, 2021).

The target of assay [1] is T1, SARS-CoV-2 PLpro (nsp3 1564–1878) (Severe acute respiratory syndrome coronavirus 2, UniProt P0DTD1). Briefly: biochemical. The conditions noted are these: low concentration screen, read-out: % of control remaining. Further details: FRET-quenched peptide (Pro3) cleavage by PLpro, 10 min pre-incubation, slope over 20 min, normalised to no-compound control.
For assay [2], the target named is T1, SARS-CoV-2 PLpro (nsp3 1564–1878). Briefly: biochemical. Details: FRET-quenched peptide (Pro3) cleavage by PLpro, 10 min pre-incubation, slope over 20 min, normalised to no-compound control. The conditions noted are these: high concentration screen, read-out: % of control remaining.

Counter-ions that a name gives are not always drawn. Like-named read-outs stand apart in the source and are kept apart here.

For `C1COC(NC(C2CC2)C2CC2)=N1` [Rilmenidine hemifumarate], the remaining activity at 1.25 µM in assay [1] (Well no.=1450) came out at 101%. Besides, the remaining activity at 3.75 µM in assay [2] (Well no.=1450) was determined as 99.9%.

On to `CC(N)C12CC3CC(CC(C3)C1)C2` (stereo not shown) [Rimantadine], for which the remaining activity at 1.25 µM in assay [1] (Well no.=2203) was found to be 99.7%. In addition, the remaining activity at 3.75 µM in assay [2] (Well no.=2203) was determined as 99.8%.

In the case of `CC[C@H](C(=O)N1CCCC[C@H]1C(=O)O[C@H](CCc1ccc(OC)c(OC)c1)c1cccc(OCC(=O)NCCNC(=O)COc2cccc([C@@H](CCc3ccc(OC)c(OC)c3)OC(=O)[C@@H]3CCCCN3C(=O)[C@@H](CC)c3cc(OC)c(OC)c(OC)c3)c2)c1)c1cc(OC)c(OC)c(OC)c1` [Rimiducid], the figures for the remaining activity at 1.25 µM in assay [1] (Well no.=7156) and in assay [1] (Well no.=8596) were 94.6% and 96.4%, respectively. Further, the remaining activity at 3.75 µM in assay [2] (Well no.=7156) was 91.8%; in assay [2] (Well no.=8596), 89.6%.

`Cc1c(C(=O)NN2CCCCC2)nn(-c2ccc(Cl)cc2Cl)c1-c1ccc(Cl)cc1` [Rimonabant (Hydrochloride)]: the remaining activity at 1.25 µM in assay [1] (Well no.=8011) amounted to 99.6%. The remaining activity at 3.75 µM in assay [2] (Well no.=8011) stood at 90.1%.

On to `Cc1c(C(=O)NN2CCCCC2)nn(-c2ccc(Cl)cc2Cl)c1-c1ccc(Cl)cc1` [Rimonabant], for which the remaining activity at 1.25 µM in assay [1] (Well no.=8438) was determined as 92.2%. Moreover, the remaining activity at 3.75 µM in assay [2] (Well no.=8438) was 97%.

`COC(=O)N(C)c1c(N)nc(-c2nn(Cc3ccccc3F)c3ncccc23)nc1N` [Riociguat]: in assay [1] (Well no.=6654), the remaining activity at 1.25 µM was determined as 107%. In addition, the remaining activity at 3.75 µM in assay [2] (Well no.=6654) is 108%.

On to `O=P(O)(O)C(O)(Cc1cccnc1)P(=O)(O)O` [Risedronate sodium], for which the remaining activity at 1.25 µM in assay [1] (Well no.=4819) amounted to 104%. Moreover, the remaining activity at 3.75 µM in assay [2] (Well no.=4819) was 102%.

Take `O=P(O)(O)C(O)(Cc1cccnc1)P(=O)(O)O` [Risedronic acid]: the remaining activity at 1.25 µM in assay [1] (Well no.=1989) worked out at 97.8%. In addition, the remaining activity at 3.75 µM in assay [2] (Well no.=1989) amounted to 96.9%.

In the case of `Cc1nc2n(c(=O)c1CCN1CCC(c3noc4cc(F)ccc34)CC1)CCCC2` [Risperidone], the remaining activity at 1.25 µM stood at 103% in assay [1] (Well no.=1306) and 100% in assay [1] (Well no.=1606). Also, the remaining activity at 3.75 µM is 103% in assay [2] (Well no.=1306) and 102% in assay [2] (Well no.=1606).

For `Cc1nc2sccn2c(=O)c1CCN1CCC(=C(c2ccc(F)cc2)c2ccc(F)cc2)CC1` [Ritanserin], the remaining activity at 1.25 µM in assay [1] (Well no.=1352) came out at 94.6%. Moreover, the remaining activity at 3.75 µM in assay [2] (Well no.=1352) is 96.7%.

`CC(C)c1nc(CN(C)C(=O)N[C@H](C(=O)N[C@@H](Cc2ccccc2)C[C@H](O)[C@H](Cc2ccccc2)NC(=O)OCc2cncs2)C(C)C)cs1` [Ritonavir]: the remaining activity at 1.25 µM in assay [1] (Well no.=4721) turned out to be 102%. For the same compound, the remaining activity at 3.75 µM in assay [2] (Well no.=4721) is 102%.

Turning to `O=C(NC[C@H]1CN(c2ccc(N3CCOCC3=O)cc2)C(=O)O1)c1ccc(Cl)s1` [Rivaroxaban], in assay [1] (Well no.=8390), the remaining activity at 1.25 µM came to 93.8%. Also, the remaining activity at 3.75 µM in assay [2] (Well no.=8390) turned out to be 88.4%.

With `CCN(C)C(=O)Oc1cccc([C@H](C)N(C)C)c1` [Rivastigmine], the remaining activity at 1.25 µM in assay [1] (Well no.=1722) came to 95.2%. Further, the remaining activity at 3.75 µM in assay [2] (Well no.=1722) is 96.3%.

In the case of `CN(C)CCc1c[nH]c2ccc(Cn3cncn3)cc12` [Rizatriptan (benzoate)], the remaining activity at 1.25 µM in assay [1] (Well no.=6174) worked out at 93.4%. The remaining activity at 3.75 µM in assay [2] (Well no.=6174) came out at 89.9%.

As to `NC(=O)c1ccc(OCC(O)CN2CC=C(c3ccc(F)cc3)CC2)cc1` (stereo not shown) [Ro 8-4304], the remaining activity at 1.25 µM in assay [1] (Well no.=1160) is 98.3%. In addition, in assay [2] (Well no.=1160), the remaining activity at 3.75 µM came to 99.3%.

`Cc1ncc(CN2CC=C(c3ccccc3)CC2)c(N)n1` [Ro 10-5824 (dihydrochloride)]: the remaining activity at 1.25 µM in assay [1] (Well no.=7039) was determined as 105%. Further, the remaining activity at 3.75 µM in assay [2] (Well no.=7039) stood at 106%.

Regarding `NCCNC(=O)c1ccc(Cl)cc1` [Ro 16-6491 hydrochloride], the remaining activity at 1.25 µM in assay [1] (Well no.=1448) is 94.7%. The remaining activity at 3.75 µM in assay [2] (Well no.=1448) came out at 92.5%.

With `CCCCOc1cc(CC2CNC(=O)N2)ccc1OC` (stereo not shown) [Ro 20-1724], in assay [1] (Well no.=225), the remaining activity at 1.25 µM was determined as 102%. Further, the remaining activity at 3.75 µM in assay [2] (Well no.=225) amounted to 100%.

As for `C[C@@H](CN1CCC(Cc2ccccc2)CC1)[C@@H](O)c1ccc(O)cc1` [Ro 25-6981 hydrochloride], the remaining activity at 1.25 µM in assay [1] (Well no.=1350) turned out to be 99.4%. In addition, the remaining activity at 3.75 µM in assay [2] (Well no.=1350) amounted to 102%.

As for `Cn1cc(C2=C(c3cn(CCCSC(=N)N)c4ccccc34)C(=O)NC2=O)c2ccccc21` [Ro 31-8220 mesylate - 3-[3-[2,5-Dihydro-4-(1-methyl-1H-indol-3-yl)-2,5-dioxo-1H-pyrrol-3-yl]-1H-indol-1-yl]propyl carbamimidothioic acid ester mesylate], the remaining activity at 1.25 µM in assay [1] (Well no.=2482) was 104%. Further, the remaining activity at 3.75 µM in assay [2] (Well no.=2482) worked out at 102%.

Turning to `O=C(c1cc(O)c(O)c([N+](=O)[O-])c1)c1ccccc1F` [Ro 41-0960], the remaining activity at 1.25 µM in assay [1] (Well no.=1162) was determined as 102%. The remaining activity at 3.75 µM in assay [2] (Well no.=1162) was determined as 104%.

`NCCNC(=O)c1ncsc1-c1cccc(F)c1` [Ro 41-1049 hydrochloride]: the remaining activity at 1.25 µM in assay [1] (Well no.=1496) came to 95.5%. For the same compound, the remaining activity at 3.75 µM in assay [2] (Well no.=1496) was 94.1%.

For `COc1ccc(S(=O)(=O)Nc2nc(-c3cccc([N+](=O)[O-])c3)cs2)cc1OC` [Ro 61-8048], the remaining activity at 1.25 µM in assay [1] (Well no.=5865) stood at 109%. For the same compound, in assay [2] (Well no.=5865), the remaining activity at 3.75 µM is 106%.

`CCCCOC(=O)NC(=O)C1c2ccccc2Oc2ccccc21` [Ro 67-4853]: in assay [1] (Well no.=5989), the remaining activity at 1.25 µM came out at 102%. In assay [2] (Well no.=5989), the remaining activity at 3.75 µM stood at 99.5%.

With `Cc1ccc(S(=O)(=O)N2CCC[C@H]2c2ccc(F)cc2)cc1` [Ro 67-7476], the remaining activity at 1.25 µM in assay [1] (Well no.=8053) was found to be 99.6%. In addition, the remaining activity at 3.75 µM in assay [2] (Well no.=8053) stood at 102%.

Take `Cn1cc(C2=C(c3cn(CCCSC(=N)N)c4ccccc34)C(=O)NC2=O)c2ccccc21` [Ro-31-8220]: in assay [1] (Well no.=2633), the remaining activity at 1.25 µM turned out to be 98.6%. Moreover, in assay [2] (Well no.=2633), the remaining activity at 3.75 µM is 96.9%.

For the compound `O=C(CCCCCCNC(=O)c1cnc(N(c2ccccc2)c2ccccc2)nc1)NO` [Rocilinostat (ACY-1215)], the remaining activity at 1.25 µM in assay [1] (Well no.=4786) came to 101%. Moreover, the remaining activity at 3.75 µM in assay [2] (Well no.=4786) came out at 102%.

Take `C=CC[N+]1([C@H]2C[C@H]3[C@@H]4CC[C@H]5C[C@H](O)[C@@H](N6CCOCC6)C[C@]5(C)[C@H]4CC[C@]3(C)[C@H]2OC(C)=O)CCCC1` [Rocuronium bromide]: the remaining activity at 1.25 µM in assay [1] (Well no.=2019) came to 103%. In addition, the remaining activity at 3.75 µM in assay [2] (Well no.=2019) was found to be 105%.

On to `CS(=O)(=O)c1ccc(C2=C(c3ccccc3)C(=O)OC2)cc1` [Rofecoxib], for which the remaining activity at 1.25 µM in assay [1] (Well no.=1724) was found to be 101%. Further, the remaining activity at 3.75 µM in assay [2] (Well no.=1724) amounted to 100%.

As to `O=C(Nc1c(Cl)cncc1Cl)c1ccc(OC(F)F)c(OCC2CC2)c1` [Roflumilast], the remaining activity at 1.25 µM in assay [1] (Well no.=5877) turned out to be 94.1%. Moreover, the remaining activity at 3.75 µM in assay [2] (Well no.=5877) was 94.8%.
